# Like-named read-outs stand apart in the source and are kept apart here.
# What was measured:
# COX-2 = target: T1, COX-2 (Homo sapiens, UniProt P35354); assay: COX Fluorescent Inhibitor Screening Assay (COX-2 inhibition); type: biochemical; settings: concentration range 0.000155–0.31 mM, 2 min incubation
# T1 construct: purchased Cayman Chemical 700100
# T1 sequence (P35354 18-604): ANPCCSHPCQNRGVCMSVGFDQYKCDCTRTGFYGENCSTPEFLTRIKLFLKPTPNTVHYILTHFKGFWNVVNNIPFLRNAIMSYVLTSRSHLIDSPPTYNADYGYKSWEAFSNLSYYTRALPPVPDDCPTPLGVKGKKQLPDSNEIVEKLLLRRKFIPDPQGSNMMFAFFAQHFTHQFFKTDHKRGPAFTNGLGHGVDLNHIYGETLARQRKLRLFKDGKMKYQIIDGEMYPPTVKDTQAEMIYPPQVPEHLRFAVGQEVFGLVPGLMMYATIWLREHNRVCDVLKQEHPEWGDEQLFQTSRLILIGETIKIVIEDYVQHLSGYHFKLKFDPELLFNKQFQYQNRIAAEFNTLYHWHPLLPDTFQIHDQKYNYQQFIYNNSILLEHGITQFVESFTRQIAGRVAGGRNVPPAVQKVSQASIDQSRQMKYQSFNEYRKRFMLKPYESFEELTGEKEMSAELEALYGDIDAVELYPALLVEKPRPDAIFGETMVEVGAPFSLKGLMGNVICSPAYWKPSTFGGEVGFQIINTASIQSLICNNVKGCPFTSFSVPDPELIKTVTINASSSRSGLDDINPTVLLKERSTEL
# [1] = In vitro skin diffusion across human epidermis in Franz-type diffusion cells; type: in vitro ADME
# Experimental: Full thickness human skin samples from patients (26–48 years old females) undergoing abdominoplasty at Perth (WA, Australia) hospitals were refrigerated immediately after surgery. Sampling was approved by the Human Research Ethics Committee of Curtin University and was conducted in compliance with the guidelines of the National Health and Medical Research Council of Australia. Epidermal sheets were obtained and stored as previously described. […] Two hundred μL samples of the receptor phase were withdrawn and replaced with an equal volume of fresh pre-warmed (37°C) 25:75 PG:PBS over an 8 h period and the content analysed by HPLC. […] Permeability coefficients (cm/h) were calculated.
# [2] = Uptake/retention in the epidermis by solvent extraction and HPLC after the permeation experiment; settings: human epidermis
# Experimental: Briefly, the skin sections were placed in 500 μL methanol and vortexed for 2 min, then transferred to a second 500 μL methanol volume and vortexed for another 2 min. The skin sample was then placed in 1 mL propylene glycol for 1 h with agitation. After centrifuging each extract at 10,000 × g for 10 min, the resultant supernatants were diluted appropriately, quantified by HPLC, and the data combined to give total penetrant in the epidermal section.
# Mass balance/recovery after the skin permeation experiments was determined by removing and retaining the donor solution, and washing the epidermal surface, donor and receptor compartments and retaining all washing solutions. The content of all solutions was analysed by HPLC following suitable dilution.
Compound,COX-2 inhibition (in words) (COX-2),Amount permeated (% of applied dose) [1],Maximum amount permeated [1],Amount extracted from the skin (% of applied dose) ([2]; applied dose 150 μg),"Amount extracted (skin distribution) ([2]; applied dose 150 μg in 25:75 PG:PBS, after 8 h permeation experiment)","steady state flux ([1]; human epidermis, 300 μL containing 150 μg diclofenac alone or as conjugate in 25:75 PG:PBS, 8 h)","Maximum amount permeated ([1]; human epidermis, applied dose 150 μg in 300 μL 25:75 PG:PBS, 8 h)","Amount permeated (% of applied dose) ([1]; human epidermis, applied dose 150 μg, 8 h)"
DKP Phe-N-MeNal,did not demonstrate COX-2 inhibition,4.33 % of applied dose,6.50(±1.94) μg/cm^2,,,,,
"CN1C(=O)[C@H](Cc2ccc(NC(=O)Cc3ccccc3Nc3c(Cl)cccc3Cl)cc2)NC(=O)[C@@H]1Cc1ccc2ccccc2c1 [DKP-diclofenac conjugate, DKP Phe(Diclofenac)-N-MeNal]",,4.00 % of applied dose,6.01(±0.16) μg/cm^2,,,,,
"O=C(O)Cc1ccccc1Nc1c(Cl)cccc1Cl [Diclofenac, Diclofenac sodium]",,,,5.72 % of applied dose,8.58(±1.50) μg,0.12 μg/cm^2/h,0.91(±0.15) μg/cm^2,0.60 % of applied dose

# — publication PMC4993479 (PLoS ONE, 2016)
